Two molecules from publication PMC5975834 (2015) can be followed below.

For test [1], the system named is ATP-based allosteric TSDzyme (DNA, G4) AGGCAGTTGAGACGAACATTCCTAAGTCTGAAATTTATCACCCGCCATAGTAGACGTATCACC/CTTGCTACACGATTCAGACTTAGGAATGTTCGACATGCGAGGGTCCAATACCGACGATTACAG/GGTGATAAAACGTGTAGCAAGCTGTAATCGACTCTAACCTGGGGGAGTATTGCGGAGGAAGGTGGCTCACTACTATGGCG/GGGTAGGGCGGGTTGGGTTAGAGACGGTATTGGACCCTCGCATGACTCAACTGCCTGGTGATACGAGAGCCTGGGTAGGGCGGGTTGGG
The test is described as follows: allosteric change of peroxidase activity. The following applies: 0.5 mM ATP.

The test system of test [2] is 5 bp Bi-quadruplex (DNA, G4) GGGTAGGGCGGGTTGGGTTTTTGGGTAGGGCGGGTTGGG
Conditions: K+ 20 mM KAc, 70 mM KCl (assumed KAc buffer).

Test [3] relates to 10 bp Bi-quadruplex (DNA, G4) GGGTAGGGCGGGTTGGGTTTTTTTTTTGGGTAGGGCGGGTTGGG
Conditions: K+ 20 mM KAc, 70 mM KCl (assumed KAc buffer).

In test [4] the test system is 15 bp Bi-quadruplex (DNA, G4) GGGTAGGGCGGGTTGGGTTTTTTTTTTTTTTTGGGTAGGGCGGGTTGGG
The following applies: K+ 20 mM KAc, 70 mM KCl (assumed KAc buffer).

Test [5] concerns Hairpin-based allosteric TSDzyme (DNA, G4) AGGCAGTTGAGACGAACATTCCTAAGTCTGAAATTTATCACCCGCCATAGTAGACGTATCACC/CTTGCTACACGATTCAGACTTAGGAATGTTCGACATGCGAGGGTCCAATACCGACGATTACAG/GGTGATAAAACGTGTAGCAAGCTGTAATCGACTCTAGCGGAAGAACCCACAACCGCGGCTCACTACTATGGCG/GGGTAGGGCGGGTTGGGTTAGAGACGGTATTGGACCCTCGCATGACTCAACTGCCTGGTGATACGAGAGCCTGGGTAGGGCGGGTTGGG
Conditions: K+ 20 mM KAc, 70 mM KCl (assumed KAc buffer).

The subject of test [6] is ATP-based allosteric TSDzyme (DNA, G4) AGGCAGTTGAGACGAACATTCCTAAGTCTGAAATTTATCACCCGCCATAGTAGACGTATCACC/CTTGCTACACGATTCAGACTTAGGAATGTTCGACATGCGAGGGTCCAATACCGACGATTACAG/GGTGATAAAACGTGTAGCAAGCTGTAATCGACTCTAACCTGGGGGAGTATTGCGGAGGAAGGTGGCTCACTACTATGGCG/GGGTAGGGCGGGTTGGGTTAGAGACGGTATTGGACCCTCGCATGACTCAACTGCCTGGTGATACGAGAGCCTGGGTAGGGCGGGTTGGG
The following applies: K+ 20 mM KAc, 70 mM KCl (assumed KAc buffer).

Test [7] relates to G-quadruplex (free hemin-G) (DNA, G4) GGGTAGGGCGGGTTGGG
As to the kind of experiment: hemin absorbance at 404 nm vs DNA concentration. Conditions: K+ 20 mM KAc, 70 mM KCl (assumed KAc buffer).

In test [8] the test system is TSDzyme (out) (DNA, G4) GGGTAGGGCGGGTTGGGCAGTTGAGACGAACATTCCTAAGTCTGAAATTTATCACCCGCCATAGTAGACGTATCACCAGG/CTTGCTACACGATTCAGACTTAGGAATGTTCGACATGCGAGGGTCCAATACCGACGATTACAG/GGTGATAAAACGTGTAGCAAGCTGTAATCGACGGGAAGAGCATGCCCATCCACTACTATGGCG/CCTCGCATGACTCAACTGCCTGGTGATACGAGGATGGGCATGCTCTTCCCGACGGTATTGGAC
As to the kind of experiment: hemin absorbance at 404 nm vs DNA concentration. Conditions: K+ 20 mM KAc, 70 mM KCl (assumed KAc buffer).

In test [9] the test system is TSDzyme (in) (DNA, G4) GGGTAGGGCGGGTTGGGCCAGGCAGTTGAGACGAACATTCCTAAGTCTGAAATTTATCACCCGCCATAGTAGACGTATCA/CTTGCTACACGATTCAGACTTAGGAATGTTCGACATGCGAGGGTCCAATACCGACGATTACAG/GGTGATAAAACGTGTAGCAAGCTGTAATCGACGGGAAGAGCATGCCCATCCACTACTATGGCG/CCTCGCATGACTCAACTGCCTGGTGATACGAGGATGGGCATGCTCTTCCCGACGGTATTGGAC
As to the kind of experiment: hemin absorbance at 404 nm vs DNA concentration. The following applies: K+ 20 mM KAc, 70 mM KCl (assumed KAc buffer).

Test [10] concerns G-quadruplex (free hemin-G) (DNA, G4) GGGTAGGGCGGGTTGGG
The test is described as follows: free energy of hemin/G-quadruplex complex formation.

For test [11], the system named is TSDzyme (out) (DNA, G4) GGGTAGGGCGGGTTGGGCAGTTGAGACGAACATTCCTAAGTCTGAAATTTATCACCCGCCATAGTAGACGTATCACCAGG/CTTGCTACACGATTCAGACTTAGGAATGTTCGACATGCGAGGGTCCAATACCGACGATTACAG/GGTGATAAAACGTGTAGCAAGCTGTAATCGACGGGAAGAGCATGCCCATCCACTACTATGGCG/CCTCGCATGACTCAACTGCCTGGTGATACGAGGATGGGCATGCTCTTCCCGACGGTATTGGAC
Described as above.

Test [12] has as its system TSDzyme (in) (DNA, G4) GGGTAGGGCGGGTTGGGCCAGGCAGTTGAGACGAACATTCCTAAGTCTGAAATTTATCACCCGCCATAGTAGACGTATCA/CTTGCTACACGATTCAGACTTAGGAATGTTCGACATGCGAGGGTCCAATACCGACGATTACAG/GGTGATAAAACGTGTAGCAAGCTGTAATCGACGGGAAGAGCATGCCCATCCACTACTATGGCG/CCTCGCATGACTCAACTGCCTGGTGATACGAGGATGGGCATGCTCTTCCCGACGGTATTGGAC
The test is described as above.

The subject of test [13] is Hairpin-based allosteric TSDzyme (DNA, G4) AGGCAGTTGAGACGAACATTCCTAAGTCTGAAATTTATCACCCGCCATAGTAGACGTATCACC/CTTGCTACACGATTCAGACTTAGGAATGTTCGACATGCGAGGGTCCAATACCGACGATTACAG/GGTGATAAAACGTGTAGCAAGCTGTAATCGACTCTAGCGGAAGAACCCACAACCGCGGCTCACTACTATGGCG/GGGTAGGGCGGGTTGGGTTAGAGACGGTATTGGACCCTCGCATGACTCAACTGCCTGGTGATACGAGAGCCTGGGTAGGGCGGGTTGGG
The test is described as above.

Test [14] deals with ATP-based allosteric TSDzyme (DNA, G4) AGGCAGTTGAGACGAACATTCCTAAGTCTGAAATTTATCACCCGCCATAGTAGACGTATCACC/CTTGCTACACGATTCAGACTTAGGAATGTTCGACATGCGAGGGTCCAATACCGACGATTACAG/GGTGATAAAACGTGTAGCAAGCTGTAATCGACTCTAACCTGGGGGAGTATTGCGGAGGAAGGTGGCTCACTACTATGGCG/GGGTAGGGCGGGTTGGGTTAGAGACGGTATTGGACCCTCGCATGACTCAACTGCCTGGTGATACGAGAGCCTGGGTAGGGCGGGTTGGG
The description is as above.

For the molecule `Nc1ncnc2c1ncn2[C@@H]1O[C@H](COP(=O)(O)OP(=O)(O)OP(=O)(O)O)[C@@H](O)[C@H]1O`, the binding result in test [1] was “yes”.
For the molecule `C=CC1=C(C)C2=Cc3c(C=C)c(C)c4[n]3[Fe]([Cl])[n]3c(c(C)c(CCC(=O)O)c3=CC3=NC(=C4)C(C)=C3CCC(=O)O)=CC1=N2`, the dissociation constant (KD) – broadly, the constant that tells how readily two partners part at equilibrium – in test [2] was 1200 ± 200 nM; in test [3] it was 1300 ± 200 nM; in [4], 1300 ± 400 nM; in [5], 500 ± 150 nM; in test [6] it was 450 ± 170 nM; in test [7] it was 2200 ± 500 nM. Besides, the KD amounted to 750 ± 230 nM in [8] and 700 ± 140 nM in test [9]. Besides, in test [10], the “-ΔGfree” value was 7.72 ± 0.14 kcal/mol. Further, the “-ΔGtetra” value in test [11] came to 8.34 ± 0.17 kcal/mol; in test [12], 8.39 ± 0.12 kcal/mol; in test [13], 8.58 ± 0.17 kcal/mol; in [14] it was 8.65 ± 0.22 kcal/mol.
